Data as given in the NIST ThermoML archive (doi:10.1016/j.jct.2016.10.047).

Test: heat capacity at constant pressure per volume; xn = mol fraction of the nth substance listed
Conditions: 102.6 kPa, Liquid, DSC, x1 = 0.08

CCCCCCCC[n+]1ccn(C)c1.F[P-](F)(F)(F)(F)F [1-octyl-3-methylimidazolium hexafluorophosphate] + CC(C)O
Conditions | heat capacity [J/K/m3]
306.1 K | 2358000
306.31 K | 2360000
306.53 K | 2376000
306.74 K | 2371000
306.95 K | 2378000
307.16 K | 2393000
307.38 K | 2371000
307.59 K | 2387000
307.8 K | 2406000
308.01 K | 2407000
308.23 K | 2403000
308.44 K | 2417000
308.65 K | 2426000
308.86 K | 2437000
309.07 K | 2429000
309.29 K | 2462000
309.5 K | 2458000
309.71 K | 2492000
309.92 K | 2498000
310.14 K | 2474000
310.35 K | 2486000
310.56 K | 2543000
310.77 K | 2578000
310.99 K | 2348000
311.2 K | 2313000
311.41 K | 2300000
311.62 K | 2301000
311.83 K | 2289000
312.05 K | 2291000
312.26 K | 2283000
312.47 K | 2282000
312.68 K | 2283000
312.89 K | 2268000
313.11 K | 2279000
313.32 K | 2266000
313.53 K | 2277000
313.74 K | 2270000
313.96 K | 2249000
314.17 K | 2265000
314.38 K | 2249000
314.59 K | 2263000
314.81 K | 2253000
315.02 K | 2254000
315.23 K | 2257000
315.44 K | 2255000
315.65 K | 2262000
315.87 K | 2264000
316.08 K | 2265000
316.29 K | 2248000
316.5 K | 2255000
316.72 K | 2243000
316.93 K | 2245000
317.14 K | 2256000
317.35 K | 2241000
317.57 K | 2246000
317.78 K | 2253000
317.99 K | 2242000
318.2 K | 2249000
318.42 K | 2245000
318.63 K | 2234000
318.84 K | 2249000
319.3 K | 2241000
319.64 K | 2242000
319.98 K | 2241000
320.31 K | 2240000
320.65 K | 2241000
320.99 K | 2241000
321.33 K | 2240000
321.67 K | 2240000
322 K | 2240000
322.34 K | 2241000
322.68 K | 2240000
323.02 K | 2240000
323.36 K | 2240000
323.69 K | 2240000
324.03 K | 2239000
324.37 K | 2239000
324.71 K | 2239000
325.05 K | 2240000
325.38 K | 2240000
325.72 K | 2238000
326.06 K | 2239000
326.4 K | 2239000
326.74 K | 2240000
327.07 K | 2239000
327.41 K | 2241000
327.75 K | 2240000
328.09 K | 2239000
328.43 K | 2240000
328.76 K | 2240000
329.1 K | 2240000
329.44 K | 2240000
329.78 K | 2240000
330.12 K | 2240000
330.46 K | 2241000
330.79 K | 2241000
331.13 K | 2237000
331.47 K | 2242000
331.81 K | 2239000
332.15 K | 2241000
332.48 K | 2241000
332.82 K | 2240000
333.16 K | 2239000
333.5 K | 2240000
333.84 K | 2241000
334.17 K | 2241000
334.51 K | 2241000
334.85 K | 2240000
335.19 K | 2243000
335.53 K | 2243000
335.86 K | 2242000
336.2 K | 2244000
336.54 K | 2243000
336.88 K | 2246000
337.22 K | 2247000
337.56 K | 2248000
337.89 K | 2251000
338.23 K | 2251000
338.57 K | 2254000
338.91 K | 2241000
